According to patent US20230365592A1 (Agios Pharmaceuticals, Inc., priority 2022, published 2023):

The molecules below were run against T1, human PAH with the R408W mutation (Homo sapiens, UniProt P00439, R408W) (assay: Cell Based Phenylalanine Flux Assay). Settings: A375 cells expressing human R408W PAH; 24 hrs compound incubation; 13C-Tyrosine by LC-MS; average where tested multiple times; read-out: AC50.
T1 construct: expressed in transfected cells
T1 sequence (P00439 1-452 R408W): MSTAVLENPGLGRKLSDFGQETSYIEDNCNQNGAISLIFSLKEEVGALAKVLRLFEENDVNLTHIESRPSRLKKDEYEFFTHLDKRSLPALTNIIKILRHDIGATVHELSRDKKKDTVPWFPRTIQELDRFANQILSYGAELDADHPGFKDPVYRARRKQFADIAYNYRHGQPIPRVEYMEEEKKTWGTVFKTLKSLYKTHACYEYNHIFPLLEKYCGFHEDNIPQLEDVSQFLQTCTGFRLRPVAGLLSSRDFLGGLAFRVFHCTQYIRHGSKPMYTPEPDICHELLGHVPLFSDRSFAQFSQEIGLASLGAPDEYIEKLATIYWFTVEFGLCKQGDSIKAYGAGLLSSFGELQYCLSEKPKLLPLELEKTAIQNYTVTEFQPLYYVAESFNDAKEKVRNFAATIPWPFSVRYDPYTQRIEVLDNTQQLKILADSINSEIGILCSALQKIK
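Also: after compound treatment, cells received sepiapterin plus isotope-labelled Phenylalanine for 4 hours, then labelled Tyrosine in the medium was quantified, 10-point 2-fold dilution series run in duplicate.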

| Structure (SMILES) | AC50 |
| --- | --- |
| COc1ccc(-c2nnc(C(=O)N3CCc4[nH]cnc4[C@@H]3c3cc4c(C)cccn4n3)o2)nc1 [Example 816, (R)-(5-(5-methoxypyridin-2-yl)-1,3,4-oxadiazol-2-yl)(4-(4-methylpyrazolo[1,5-a]pyridin-2-yl)-6,7-dihydro-1H-imidazo[4,5-c]pyridin-5(4H)-yl)methanone] | > 5000 nM |
| COc1ccc(-c2nnc(C(=O)N3CCc4[nH]cnc4[C@H]3c3cc4c(C)cccn4n3)o2)nc1 [Example 817, (S)-(5-(5-methoxypyridin-2-yl)-1,3,4-oxadiazol-2-yl)(4-(4-methylpyrazolo[1,5-a]pyridin-2-yl)-6,7-dihydro-1H-imidazo[4,5-c]pyridin-5(4H)-yl)methanone] | < 500 nM |
| Cc1cccn2nc([C@H]3c4nc[nH]c4CCN3C(=O)c3nnc(-c4ncccc4F)o3)cc12 [Example 818, (R)-(5-(3-fluoropyridin-2-yl)-1,3,4-oxadiazol-2-yl)(4-(4-methylpyrazolo[1,5-a]pyridin-2-yl)-6,7-dihydro-1H-imidazo[4,5-c]pyridin-5(4H)-yl)methanone] | > 5000 nM |
| Cc1cccn2nc([C@@H]3c4nc[nH]c4CCN3C(=O)c3nnc(-c4ncccc4F)o3)cc12 [Example 819, (S)-(5-(3-fluoropyridin-2-yl)-1,3,4-oxadiazol-2-yl)(4-(4-methylpyrazolo[1,5-a]pyridin-2-yl)-6,7-dihydro-1H-imidazo[4,5-c]pyridin-5(4H)-yl)methanone] | < 500 nM |
| Cc1cccn2nc([C@@H]3c4nc[nH]c4CCN3C(=O)c3nnc(-c4cnn(C(F)F)c4)o3)cc12 [Example 820, (S)-(5-(1-(difluoromethyl)-1H-pyrazol-4-yl)-1,3,4-oxadiazol-2-yl)(4-(4-methylpyrazolo[1,5-a]pyridin-2-yl)-6,7-dihydro-1H-imidazo[4,5-c]pyridin-5(4H)-yl)methanone] | < 500 nM |
| Cc1cccn2nc([C@H]3c4nc[nH]c4CCN3C(=O)c3nnc(-c4cnn(C(F)F)c4)o3)cc12 [Example 821, (R)-(5-(1-(difluoromethyl)-1H-pyrazol-4-yl)-1,3,4-oxadiazol-2-yl)(4-(4-methylpyrazolo[1,5-a]pyridin-2-yl)-6,7-dihydro-1H-imidazo[4,5-c]pyridin-5(4H)-yl)methanone] | > 5000 nM |
| Cc1cccn2nc([C@@H]3c4nc[nH]c4CCN3C(=O)c3nnc(-c4ccn(C(F)F)n4)o3)cc12 [Example 822, (S)-(5-(1-(difluoromethyl)-1H-pyrazol-3-yl)-1,3,4-oxadiazol-2-yl)(4-(4-methylpyrazolo[1,5-a]pyridin-2-yl)-6,7-dihydro-1H-imidazo[4,5-c]pyridin-5(4H)-yl)methanone] | < 500 nM |
| Cc1cccn2nc([C@H]3c4nc[nH]c4CCN3C(=O)c3nnc(-c4ccn(C(F)F)n4)o3)cc12 [Example 823, (R)-(5-(1-(difluoromethyl)-1H-pyrazol-3-yl)-1,3,4-oxadiazol-2-yl)(4-(4-methylpyrazolo[1,5-a]pyridin-2-yl)-6,7-dihydro-1H-imidazo[4,5-c]pyridin-5(4H)-yl)methanone] | 1000 to 5000 nM |
| O=C(c1nnc(-c2ccn(C(F)F)n2)o1)N1CCc2[nH]cnc2[C@@H]1c1cc2c(F)cccn2n1 [Example 824, (R)-(5-(1-(difluoromethyl)-1H-pyrazol-3-yl)-1,3,4-oxadiazol-2-yl)(4-(4-fluoropyrazolo[1,5-a]pyridin-2-yl)-6,7-dihydro-1H-imidazo[4,5-c]pyridin-5(4H)-yl)methanone] | > 5000 nM |
| O=C(c1nnc(-c2ccn(C(F)F)n2)o1)N1CCc2[nH]cnc2[C@H]1c1cc2c(F)cccn2n1 [Example 825, (S)-(5-(1-(difluoromethyl)-1H-pyrazol-3-yl)-1,3,4-oxadiazol-2-yl)(4-(4-fluoropyrazolo[1,5-a]pyridin-2-yl)-6,7-dihydro-1H-imidazo[4,5-c]pyridin-5(4H)-yl)methanone] | < 500 nM |
| Cn1cc(-c2nnc(C(=O)N3CCc4[nH]cnc4[C@H]3c3cc4c(C(F)(F)F)cccn4n3)o2)cn1 [Example 828, (S)-(5-(1-methyl-1H-pyrazol-4-yl)-1,3,4-oxadiazol-2-yl)(4-(4-(trifluoromethyl)pyrazolo[1,5-a]pyridin-2-yl)-6,7-dihydro-1H-imidazo[4,5-c]pyridin-5(4H)-yl)methanone] | < 500 nM |
| Cn1cc(-c2nnc(C(=O)N3CCc4[nH]cnc4[C@@H]3c3cc4c(C(F)(F)F)cccn4n3)o2)cn1 [Example 829, (R)-(5-(1-methyl-1H-pyrazol-4-yl)-1,3,4-oxadiazol-2-yl)(4-(4-(trifluoromethyl)pyrazolo[1,5-a]pyridin-2-yl)-6,7-dihydro-1H-imidazo[4,5-c]pyridin-5(4H)-yl)methanone] | > 5000 nM |
| O=C(c1nnc(-c2ccncc2)o1)N1CCc2[nH]cnc2[C@H]1c1cc2c(F)cccn2n1 [Example 830, (S)-(4-(4-fluoropyrazolo[1,5-a]pyridin-2-yl)-6,7-dihydro-1H-imidazo[4,5-c]pyridin-5(4H)-yl)(5-(pyridin-4-yl)-1,3,4-oxadiazol-2-yl)methanone] | < 500 nM |

More lines, now with the values ahead:

| AC50 | Structure (SMILES) |
| --- | --- |
| 1000 to 5000 nM | O=C(c1nnc(-c2ccncc2)o1)N1CCc2[nH]cnc2[C@@H]1c1cc2c(F)cccn2n1 [Example 831, (R)-(4-(4-fluoropyrazolo[1,5-a]pyridin-2-yl)-6,7-dihydro-1H-imidazo[4,5-c]pyridin-5(4H)-yl)(5-(pyridin-4-yl)-1,3,4-oxadiazol-2-yl)methanone] |
| < 500 nM | O=C(c1nnc(-c2cnn(C3CCC3)c2)o1)N1CCc2[nH]cnc2[C@H]1c1cc2c(F)cccn2n1 [Example 832, (S)-(5-(1-cyclobutyl-1H-pyrazol-4-yl)-1,3,4-oxadiazol-2-yl)(4-(4-fluoropyrazolo[1,5-a]pyridin-2-yl)-6,7-dihydro-1H-imidazo[4,5-c]pyridin-5(4H)-yl)methanone] |
| 500 to 1000 nM | O=C(c1nnc(-c2cnn(S(=O)(=O)C3CC3)c2)o1)N1CCc2[nH]cnc2[C@H]1c1cc2c(F)cccn2n1 [Example 834, (S)-(5-(1-(cyclopropylsulfonyl)-1H-pyrazol-4-yl)-1,3,4-oxadiazol-2-yl)(4-(4-fluoropyrazolo[1,5-a]pyridin-2-yl)-6,7-dihydro-1H-imidazo[4,5-c]pyridin-5(4H)-yl)methanone] |
| > 5000 nM | O=C(c1nnc(-c2cnn(S(=O)(=O)C3CC3)c2)o1)N1CCc2[nH]cnc2[C@@H]1c1cc2c(F)cccn2n1 [Example 835, (R)-(5-(1-(cyclopropylsulfonyl)-1H-pyrazol-4-yl)-1,3,4-oxadiazol-2-yl)(4-(4-fluoropyrazolo[1,5-a]pyridin-2-yl)-6,7-dihydro-1H-imidazo[4,5-c]pyridin-5(4H)-yl)methanone] |
| < 500 nM | Cc1cccn2nc([C@@H]3c4nc[nH]c4CCN3C(=O)c3ncnn3C)cc12 [Example 838, (S)-(1-methyl-1H-1,2,4-triazol-5-yl)(4-(4-methylpyrazolo[1,5-a]pyridin-2-yl)-6,7-dihydro-1H-imidazo[4,5-c]pyridin-5(4H)-yl)methanone] |
| 500 to 1000 nM | Cn1ncnc1C(=O)N1CCc2[nH]cnc2[C@H]1c1cc2c(F)cccn2n1 [Example 840, (S)-(4-(4-fluoropyrazolo[1,5-a]pyridin-2-yl)-6,7-dihydro-1H-imidazo[4,5-c]pyridin-5(4H)-yl)(1-methyl-1H-1,2,4-triazol-5-yl)methanone] |
| 1000 to 5000 nM | Cn1ncnc1C(=O)N1CCc2[nH]cnc2[C@@H]1c1cc2c(F)cccn2n1 [Example 841, (R)-(4-(4-fluoropyrazolo[1,5-a]pyridin-2-yl)-6,7-dihydro-1H-imidazo[4,5-c]pyridin-5(4H)-yl)(1-methyl-1H-1,2,4-triazol-5-yl)methanone] |
| < 500 nM | O=C(c1ccnn1C(F)(F)F)N1CCc2[nH]cnc2[C@H]1c1cc2c(F)cccn2n1 [Example 842, (S)-(4-(4-fluoropyrazolo[1,5-a]pyridin-2-yl)-6,7-dihydro-1H-imidazo[4,5-c]pyridin-5(4H)-yl)(1-(trifluoromethyl)-1H-pyrazol-5-yl)methanone] |
| 1000 to 5000 nM | O=C(c1ccnn1C(F)(F)F)N1CCc2[nH]cnc2[C@@H]1c1cc2c(F)cccn2n1 [Example 843, (R)-(4-(4-fluoropyrazolo[1,5-a]pyridin-2-yl)-6,7-dihydro-1H-imidazo[4,5-c]pyridin-5(4H)-yl)(1-(trifluoromethyl)-1H-pyrazol-5-yl)methanone] |
| < 500 nM | Cc1nn(C)cc1-c1nnc(C(=O)N2CCc3[nH]cnc3[C@H]2c2cc3c(C)cccn3n2)o1 [Example 844, (S)-(5-(1,3-dimethyl-1H-pyrazol-4-yl)-1,3,4-oxadiazol-2-yl)(4-(4-methylpyrazolo[1,5-a]pyridin-2-yl)-6,7-dihydro-1H-imidazo[4,5-c]pyridin-5(4H)-yl)methanone] |
| > 5000 nM | Cc1nn(C)cc1-c1nnc(C(=O)N2CCc3[nH]cnc3[C@@H]2c2cc3c(C)cccn3n2)o1 [Example 845, (R)-(5-(1,3-dimethyl-1H-pyrazol-4-yl)-1,3,4-oxadiazol-2-yl)(4-(4-methylpyrazolo[1,5-a]pyridin-2-yl)-6,7-dihydro-1H-imidazo[4,5-c]pyridin-5(4H)-yl)methanone] |
| < 500 nM | Cc1nn(C)cc1-c1nnc(C(=O)N2CCc3[nH]cnc3[C@H]2c2cc3c(F)cccn3n2)o1 [Example 846, (S)-(5-(1,3-dimethyl-1H-pyrazol-4-yl)-1,3,4-oxadiazol-2-yl)(4-(4-fluoropyrazolo[1,5-a]pyridin-2-yl)-6,7-dihydro-1H-imidazo[4,5-c]pyridin-5(4H)-yl)methanone] |
